A word on the EC50: it is the concentration at which the effect is half-maximal. Low readings indicate greater potency, high ones weaker potency.

Molecules are shown by their SMILES. Counter-ions that a name gives are not always drawn.

Format in all cases: cell-based
The target of experiment [1] is T1, TLR2 (Mus musculus, UniProt Q9QUN7).
T1 construct: endogenous in cells; host or cells: RAW 264.7
Description: TLR2 functional assay, cytokine release from RAW 264.7 mouse macrophage cell line. To be noted: average of all runs. In a few lines: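 RAW 264.7 cells plated (about 40,000 per well) and treated with compounds at varying concentrations for 6–24 h (or overnight). Released cytokines in supernatant (e.g. TNF-alpha, IL-1, IL-10, IL-12) measured by ELISA or MSD multiplex; EC50 fitted.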

For experiment [2], the target named is T2, TLR2 (Homo sapiens, UniProt O60603). Description: TLR2 agonist screening assay, HEK-Blue TLR2 reporter cell line (NF-kB-driven SEAP, absorbance at 600 nm). More on the design: host or cells: HEK-293 (HEK-Blue TLR2 reporter cell line). To be noted: HEK-Blue TLR2 reporter cells, agonist mode. The method in brief:
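HEK-293 cells expressing TLR2 with NF-kB-driven SEAP were plated at 40,000 per well. After 16-24 h, they were treated overnight with diluted agonists in detection medium (1% DMSO final). Absorbance at 600 nm was read, and EC50 values were fitted.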

Experiment [3] has as its target T2, TLR2. Description: TLR2 in vitro functional assay, cytokine release from human monocytic cell line THP-1. The note with it: THP-1 human monocytic cell line, average of all runs. The protocol:
Cells of the immune system respond to TLR agonists in part by secreting cytokines. Functional assays for TLR2 agonists measure cytokine release from purified immune cells or immortalized cell lines derived from immune cells. Cytokine release is measured by standard ELISA approaches or multiplexed analysis using the Meso Scale Discovery (MSD) platform.
Following assay measurements utilizing either HEK-Blue detection or cytokine release, all data is analyzed with the GraphPad Prism8 statistical package to determine EC50, binding and activity metrics for the TLR2 modulators. […]
Numerous cell lines derived from various cell types can respond to TLR2 agonists with stereotyped cytokine and chemokine secretion. In particular, cell lines derived from macrophages respond robustly to TLR2 agonists by secreting a wide array of cytokines, including (but not limited to) TNF-alpha, IL-1, IL-10 and IL-12. The human monocytic cell line THP-1, the mouse macrophage line RAW-264.7, and the rat macrophage line NR8383 were used. For each assay, the respective cell lines were plated into 96-well plates overnight and then treated the following day with various TLR2-engaging compounds at varying concentrations. The next day, supernatants were collected and assayed by multiplex immunodetection for cytokines released (MSD detection kits for respective species).
Data provided in Table 5 is generated using protocols described in Example 45 and 46.

T1 sequence (Q9QUN7 25-784): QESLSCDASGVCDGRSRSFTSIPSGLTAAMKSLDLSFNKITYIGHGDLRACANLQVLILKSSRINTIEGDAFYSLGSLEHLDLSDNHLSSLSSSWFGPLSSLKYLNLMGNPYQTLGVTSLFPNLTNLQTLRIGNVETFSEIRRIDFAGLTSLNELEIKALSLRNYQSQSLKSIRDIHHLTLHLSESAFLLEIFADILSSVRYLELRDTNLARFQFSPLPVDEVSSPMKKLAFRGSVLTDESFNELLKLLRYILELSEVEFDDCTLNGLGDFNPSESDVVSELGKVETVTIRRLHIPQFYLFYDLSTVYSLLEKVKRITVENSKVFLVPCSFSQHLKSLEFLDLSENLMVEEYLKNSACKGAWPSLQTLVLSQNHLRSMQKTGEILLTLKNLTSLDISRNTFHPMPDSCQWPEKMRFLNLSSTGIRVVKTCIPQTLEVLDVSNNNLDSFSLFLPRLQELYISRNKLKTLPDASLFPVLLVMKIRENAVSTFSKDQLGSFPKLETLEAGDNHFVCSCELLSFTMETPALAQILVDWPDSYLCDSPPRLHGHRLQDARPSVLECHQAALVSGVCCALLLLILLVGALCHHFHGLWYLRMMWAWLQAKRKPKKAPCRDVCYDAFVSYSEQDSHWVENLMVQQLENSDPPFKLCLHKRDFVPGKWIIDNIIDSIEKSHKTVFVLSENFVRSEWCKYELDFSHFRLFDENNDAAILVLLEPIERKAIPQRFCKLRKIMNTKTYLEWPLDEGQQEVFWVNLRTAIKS
T2 sequence (O60603 21-784): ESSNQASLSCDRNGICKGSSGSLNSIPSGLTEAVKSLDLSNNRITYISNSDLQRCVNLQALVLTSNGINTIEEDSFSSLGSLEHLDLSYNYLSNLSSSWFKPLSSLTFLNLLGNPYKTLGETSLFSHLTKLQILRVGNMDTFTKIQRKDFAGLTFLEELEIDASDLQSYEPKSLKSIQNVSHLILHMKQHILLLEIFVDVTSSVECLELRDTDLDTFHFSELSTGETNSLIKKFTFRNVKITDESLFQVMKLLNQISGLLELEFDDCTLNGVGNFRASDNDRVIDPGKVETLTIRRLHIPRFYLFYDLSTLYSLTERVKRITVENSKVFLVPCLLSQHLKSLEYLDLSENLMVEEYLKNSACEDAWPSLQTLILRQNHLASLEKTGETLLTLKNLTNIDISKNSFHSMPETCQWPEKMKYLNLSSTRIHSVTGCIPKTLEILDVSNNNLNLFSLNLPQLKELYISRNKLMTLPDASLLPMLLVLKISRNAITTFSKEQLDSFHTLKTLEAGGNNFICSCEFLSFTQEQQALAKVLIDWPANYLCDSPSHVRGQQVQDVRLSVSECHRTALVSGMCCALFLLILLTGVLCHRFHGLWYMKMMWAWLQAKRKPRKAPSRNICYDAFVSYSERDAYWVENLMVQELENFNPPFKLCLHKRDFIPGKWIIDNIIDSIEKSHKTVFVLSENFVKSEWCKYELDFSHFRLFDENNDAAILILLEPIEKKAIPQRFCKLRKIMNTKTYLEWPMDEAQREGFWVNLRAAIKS

Turning to `CCCCCCCCCCCCCCNC(=O)[C@@H]1CN(C(=O)c2ccc(C(=O)N3C[C@@H](C(=O)N[C@H]4C[C@@H]4c4ccccc4)[C@H](C(=O)N[C@H]4C[C@@H]4c4ccccc4)C3)cc2)C[C@H]1OC` [Compound 109, (3S,4S)-1-(4-((3S,4R)-3-methoxy-4-(tetradecylcarbamoyl)pyrrolidine-1-carbonyl)benzoyl)-N3,N4-bis((1S,2R)-2-phenylcyclopropyl)pyrrolidine-3,4-dicarboxamide], the EC50 on TLR2 [1] is above 1000 nM; at TLR2 [2] (average of all runs (Table 4)) it was 0.1 to 50 nM; at TLR2 [3] it was 0.1 to 50 nM.

With `CCCCCCCCCCCCCCC(=O)N[C@H]1CN(C(=O)c2ccc(C(=O)N3C[C@@H](C(=O)N[C@H]4C[C@@H]4c4ccccc4)[C@H](C(=O)N[C@H]4C[C@@H]4c4ccccc4)C3)cc2)C[C@@H]1OC` [Compound 101, (3S,4S)-1-(4-((3S,4S)-3-methoxy-4-pentadecanamidopyrrolidine-1-carbonyl)benzoyl)-N3,N4-bis((1S,2R)-2-phenylcyclopropyl) pyrrolidine-3,4-dicarboxamide], the EC50 on TLR2 [1] was above 1000 nM; at TLR2 [2] (average of all runs (Table 4)) it was 0.1 to 50 nM; at TLR2 [3], 0.1 to 50 nM.

As for `CCCCCCCCCCCCCCNC(=O)[C@H]1CN(C(=O)c2ccc(C(=O)N3C[C@@H](C(=O)N[C@H]4C[C@@H]4c4ccccc4)[C@H](C(=O)N[C@H]4C[C@@H]4c4ccccc4)C3)cc2)C[C@H]1OC` (relative stereo) [Compound 108, (3S,4S)-1-(4-((3S*,4S*)-3-methoxy-4-(tetradecylcarbamoyl)pyrrolidine-1-carbonyl)benzoyl)-N3,N4-bis((1S,2R)-2-phenylcyclopropyl)pyrrolidine-3,4-dicarboxamide], the values for the half-maximal effective concentration (EC50) at TLR2 [1], at TLR2 [2] (average of all runs (Table 4)) and on TLR2 [3] were 51 to 350 nM, 0.1 to 50 nM and 0.1 to 50 nM, respectively.

With `CCCCCCCCCCCCCCNC(=O)[C@H]1CN(C(=O)c2ccc(C(=O)N3C[C@@H](C(=O)N[C@H]4C[C@@H]4c4ccccc4)[C@H](C(=O)N[C@H]4C[C@@H]4c4ccccc4)C3)cc2)CCN1C` [Compound 059, (3S,4S)-1-(4-((R)-4-methyl-3-(tetradecylcarbamoyl)piperazine-1-carbonyl)benzoyl)-N3,N4-bis((1S,2R)-2-phenylcyclopropyl)pyrrolidine-3,4-dicarboxamide formate], the EC50 on TLR2 [2] (average of all runs (Table 3)) and on TLR2 [3] was 0.1 to 50 nM each time.

As for `CCCCCCCCCCCCCCNC(=O)[C@H]1CN(C(=O)c2ccc(C(=O)N3C[C@@H](C(=O)N[C@H]4C[C@@H]4c4ccccc4)[C@H](C(=O)N[C@H]4C[C@@H]4c4ccccc4)C3)cc2)C[C@H]1O` (relative stereo) [Compound 104, (3S,4S)-1-(4-((3S*,4S*)-3-hydroxy-4-(tetradecylcarbamoyl)pyrrolidine-1-carbonyl)benzoyl)-N3,N4-bis((1S,2R)-2-phenylcyclopropyl)pyrrolidine-3,4-dicarboxamide], the EC50 on TLR2 [2] (average of all runs (Table 4)) and at TLR2 [3] was 0.1 to 50 nM throughout.

With `CCCCCCCCCCCCCCC(=O)N[C@H]1CCN(C(=O)c2ccc(C(=O)N3C[C@@H](C(=O)N[C@H]4C[C@@H]4c4ccccc4)[C@H](C(=O)N[C@H]4C[C@@H]4c4ccccc4)C3)cc2)C1` [Compound 026, (3S,4S)-1-(4-((S)-3-pentadecanamidopyrrolidine-1-carbonyl)benzoyl)-N3,N4-bis((1S,2R)-2-phenylcyclopropyl)pyrrolidine-3,4-dicarboxamide], the EC50 on TLR2 [2] (average of all runs (Table 3)) and at TLR2 [3] was 51 to 350 nM each time.

`CCCCCCCCCCCCCCC(=O)N[C@@H]1CCN(C(=O)c2ccc(C(=O)N3C[C@@H](C(=O)N[C@H]4C[C@@H]4c4ccccc4)[C@H](C(=O)N[C@H]4C[C@@H]4c4ccccc4)C3)cc2)C1` [Compound 027, (3S,4S)-1-(4-((R)-3-pentadecanamidopyrrolidine-1-carbonyl)benzoyl)-N3,N4-bis((1S,2R)-2-phenylcyclopropyl)pyrrolidine-3,4-dicarboxamide]: the EC50 at TLR2 [2] (average of all runs (Table 3)) and on TLR2 [3] was 0.1 to 50 nM throughout.

For the compound `CCCCCCNC(=O)[C@H](CNC(=O)c1ccc(C(=O)N2C[C@@H](C(=O)N[C@H]3C[C@@H]3c3ccccc3)[C@H](C(=O)N[C@H]3C[C@@H]3c3ccccc3)C2)cc1)NC(=O)CCCCCC` [Compound 025, (3S,4S)-1-(4-(((S)-2-heptanamido-3-(hexylamino)-3-oxopropyl)carbamoyl)benzoyl)-N3,N4-bis((1S,2R)-2-phenylcyclopropyl)pyrrolidine-3,4-dicarboxamide], the EC50 on TLR2 [2] (average of all runs (Table 3)) and on TLR2 [3] was 0.1 to 50 nM each time.

Consider `CCCCCCCCCCCCCCNC(=O)[C@@H]1CN(C(=O)c2ccc(C(=O)N3C[C@@H](C(=O)N[C@H]4C[C@@H]4c4ccccc4)[C@H](C(=O)N[C@H]4C[C@@H]4c4ccccc4)C3)cc2)C[C@H]1OC` (relative stereo) [Compound 060, (3S,4S)-1-(4-((3S*,4R*)-3-methoxy-4-(tetradecylcarbamoyl)pyrrolidine-1-carbonyl)benzoyl)-N3,N4-bis((1S,2R)-2-phenylcyclopropyl)pyrrolidine-3,4-dicarboxamide], for which the EC50 at TLR2 [2] (average of all runs (Table 3)) and on TLR2 [3] was 0.1 to 50 nM each time.

Consider `CCCCCCCC(=O)N1CC(=O)N(Cc2ccc(C(=O)N3C[C@@H](C(=O)N[C@H]4C[C@@H]4c4ccccc4)[C@H](C(=O)N[C@H]4C[C@@H]4c4ccccc4)C3)cc2)C[C@H]1C(=O)NCCCCCC` [Compound 076, (3S,4S)-1-(4-(((S)-5-(hexylcarbamoyl)-4-octanoyl-2-oxopiperazin-1-yl)methyl)benzoyl)-N3,N4-bis((1S,2R)-2-phenylcyclopropyl)pyrrolidine-3,4-dicarboxamide], for which the EC50 at TLR2 [2] (average of all runs (Table 3)) and on TLR2 [3] was 0.1 to 50 nM each time.

`CCCCCCCC(=O)N1CCN(C(=O)c2ccc(C(=O)N3C[C@@H](C(=O)N[C@H]4C[C@@H]4c4ccccc4)[C@H](C(=O)N[C@H]4C[C@@H]4c4ccccc4)C3)cc2)C[C@@H]1C(=O)NCCCCCC` [Compound 032, (3S,4S)-1-(4-((R)-3-(hexylcarbamoyl)-4-octanoylpiperazine-1-carbonyl)benzoyl)-N3,N4-bis((1S,2R)-2-phenylcyclopropyl)pyrrolidine-3,4-dicarboxamide]: the EC50 on TLR2 [2] (average of all runs (Table 3)) and on TLR2 [3] was 0.1 to 50 nM each time.

Turning to `CCCCCCCNC(=O)[C@@H]1CN(C(=O)c2ccc(C(=O)N3C[C@@H](C(=O)N[C@H]4C[C@@H]4c4ccccc4)[C@H](C(=O)N[C@H]4C[C@@H]4c4ccccc4)C3)cc2)C[C@@H]1OCCCCCCC` (relative stereo) [Compound 063, (3S,4S)-1-(4-((3R*,4R*)-3-(heptylcarbamoyl)-4-(heptyloxy)pyrrolidine-1-carbonyl)benzoyl)-N3,N4-bis((1S,2R)-2-phenylcyclopropyl)pyrrolidine-3,4-dicarboxamide], the EC50 on TLR2 [2] (average of all runs (Table 3)) was 351 to 1000 nM; at TLR2 [3], 0.1 to 50 nM.

On to `CCCCCCCO[C@@H]1CN(C(=O)c2ccc(C(=O)N3C[C@@H](C(=O)N[C@H]4C[C@@H]4c4ccccc4)[C@H](C(=O)N[C@H]4C[C@@H]4c4ccccc4)C3)cc2)C[C@H]1C(=O)NCCCCCC` (single isomer, unassigned) [Compound 072, (3S,4S)-1-(4-((3S*,4R*)-3-(heptyloxy)-4-(hexylcarbamoyl)pyrrolidine-1-carbonyl)benzoyl)-N3,N4-bis((1S,2R)-2-phenylcyclopropyl)pyrrolidine-3,4-dicarboxamide], for which the EC50 at TLR2 [2] (average of all runs (Table 3)) and on TLR2 [3] was 0.1 to 50 nM in each case.

The values above are taken from patent publication US11951094B2, “TLR2 modulator compounds, pharmaceutical compositions and uses thereof” (Axial Therapeutics, Inc., priority 2020, dated 2024).
